Reference: ChEMBL document CHEMBL3046926, “Molecular properties prediction, synthesis, and diuretic activity of phenoxy acetic acid bearing pyrazolines” (2013)

Experiments:
Rattus norvegicus [1] = assay: Induction of diuresis in Rattus norvegicus albino (rat) assessed as urinary Na+ excretion at 1000 mg/kg, po measured at 5-18 hr after drug administration by standard Lipschitz method (reference value: 0.65 +/-0.006 mEq/L); format: functional, Urine
Rattus norvegicus [2] = assay: Induction of diuresis in Rattus norvegicus albino (rat) assessed as normal saline intake at 1000 mg/kg, po measured at 5-18 hr after drug administration by standard Lipschitz method (reference value: 2.50 +/-0.036 ml); format: functional
Rattus norvegicus [3] = assay: Induction of diuresis in Rattus norvegicus albino (rat) assessed as normal saline intake at 1000 mg/kg, po measured at 0-5 hr after drug administration by standard Lipschitz method (reference value: 2.50 +/-0.036 ml); format: functional
Rattus norvegicus [4] = assay: Induction of diuresis in Rattus norvegicus albino (rat) assessed as urinary Cl- excretion at 1000 mg/kg, po measured at 5-18 hr after drug administration by standard Lipschitz method (reference value: 0.38 +/-0.011 mEq/L); format: functional, Urine
Rattus norvegicus [5] = assay: Induction of diuresis in Rattus norvegicus albino (rat) assessed as urinary Na+ excretion at 1000 mg/kg, po measured at 0-5 hr after drug administration by standard Lipschitz method (reference value: 0.90 +/-0.003 mEq/L); format: functional, Urine
Rattus norvegicus [6] = assay: Induction of diuresis action in Rattus norvegicus albino (rat) assessed as urinary excretion at 1000 mg/kg, po measured at 0-5 hr after drug administration by standard Lipschitz method against untreated control (reference value: 1 no unit); format: functional, Urine
Rattus norvegicus [7] = assay: Induction of diuresis in Rattus norvegicus albino (rat) assessed as urinary Cl- excretion at 1000 mg/kg, po measured at 0-5 hr after drug administration by standard Lipschitz method (reference value: 0.46 +/-0.005 mEq/L); format: functional, Urine
Rattus norvegicus [8] = assay: Induction of diuresis activity in Rattus norvegicus albino (rat) assessed as urinary excretion at 1000 mg/kg, po measured at 0-5 hr after drug administration by standard Lipschitz method against frusemide-treated control (reference value: 0.5 no unit); format: functional, Urine
Rattus norvegicus [9] = assay: Induction of diuresis in Rattus norvegicus albino (rat) assessed as total urinary output at 1000 mg/kg, po measured at 0-5 hr after drug administration by standard Lipschitz method (reference value: 2.46 +/-0.125 ml); format: functional, Urine
Rattus norvegicus [10] = assay: Induction of diuresis activity in Rattus norvegicus albino (rat) assessed as urinary excretion at 1000 mg/kg, po measured at 5-18 hr after drug administration by standard Lipschitz method against frusemide-treated control (reference value: 0.2 no unit); format: functional, Urine
Rattus norvegicus [11] = assay: Induction of diuresis in Rattus norvegicus albino (rat) assessed as urinary K+ excretion at 1000 mg/kg, po measured at 5-18 hr after drug administration by standard Lipschitz method (reference value: 0.22 +/-0.004 mEq/L); format: functional, Urine
Rattus norvegicus [12] = assay: Induction of diuresis in Rattus norvegicus albino (rat) assessed as total urinary output at 1000 mg/kg, po measured at 5-18 hr after drug administration by standard Lipschitz method (reference value: 1.26 +/-0.049 ml); format: functional, Urine
Rattus norvegicus [13] = assay: Induction of diuresis in Rattus norvegicus albino (rat) assessed as urinary excretion at 1000 mg/kg, po measured at 0-5 hr after drug administration by standard Lipschitz method (reference value: 98.40%); format: functional, Urine
Rattus norvegicus [14] = assay: Induction of diuresis in Rattus norvegicus albino (rat) assessed as urinary K+ excretion at 1000 mg/kg, po measured at 0-5 hr after drug administration by standard Lipschitz method (reference value: 0.46 +/-0.006 mEq/L); format: functional, Urine
Rattus norvegicus [15] = assay: Induction of diuresis action in Rattus norvegicus albino (rat) assessed as urinary excretion at 1000 mg/kg, po measured at 5-18 hr after drug administration by standard Lipschitz method against untreated control (reference value: 1 no unit); format: functional, Urine
Rattus norvegicus [16] = assay: Induction of diuresis in Rattus norvegicus albino (rat) assessed as urinary excretion at 1000 mg/kg, po measured at 5-18 hr after drug administration by standard Lipschitz method (reference value: 50.4%); format: functional, Urine

SMILES: NC(N)=O [UREA]
- Activity (Rattus norvegicus [1]): 2.82 mEq/L
- Activity (Rattus norvegicus [2]): 2.73 mL
- Activity (Rattus norvegicus [3]): 2.73 mL
- Activity (Rattus norvegicus [4]): 1.94 mEq/L
- Activity (Rattus norvegicus [5]): 1.91 mEq/L
- Ratio (Rattus norvegicus [6]): 1.9
- Activity (Rattus norvegicus [7]): 0.95 mEq/L
- Ratio (Rattus norvegicus [8]): 0.96
- Activity (Rattus norvegicus [9]): 5.13 mL
- Ratio (Rattus norvegicus [10]): 0.93
- Activity (Rattus norvegicus [11]): 2.82 mEq/L
- Activity (Rattus norvegicus [12]): 6.3 mL
- Activity (Rattus norvegicus [13]): 187.91%
- Activity (Rattus norvegicus [14]): 0.94 mEq/L
- Ratio (Rattus norvegicus [15]): 4.6
- Activity (Rattus norvegicus [16]): 230.76%
